According to PMC9144902, “Metal(II) Complexes of the Fluoroquinolone Fleroxacin: Synthesis, Characterization and Biological Profile” (Pharmaceutics, 2022):

Assays:
[1] = system: Bacillus subtilis ATCC 6633; experiment: Antimicrobial activity, MIC determination; assay type: cell-based; conditions: B. subtilis; 24-h incubation, 37°C
Procedure, shortened: (§1)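 Broth microdilution MIC in Mueller–Hinton broth, inoculum 0.5 McFarland, compounds added from DMSO working solutions at 2:98. After 24 h (37°C; X. campestris at 28°C), MIC is the lowest concentration inhibiting visible growth, by OD600 turbidity, in at least two of triplicate cultures.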

[2] = system: Staphylococcus aureus ATCC 6538; experiment: Antimicrobial activity, MIC determination; assay type: cell-based; conditions: S. aureus; 24-h incubation, 37°C
[3] = system: Xanthomonas campestris ATCC 1395; experiment: Antimicrobial activity, MIC determination; assay type: cell-based; conditions: X. campestris; 24-h incubation, 28°C
Procedure, shortened: as §1

[4] = molecular target: T1, bovine serum albumin (BSA) (Bos taurus, UniProt P02769); experiment: Albumin binding by tryptophan fluorescence emission quenching; conditions: for K(BSA), BSA-binding constant / kq(BSA), BSA-quenching constant: BSA 3 μM; for K(BSA), BSA-binding constant: buffer pH 7.0, Scatchard equation; for kq(BSA), BSA-quenching constant: buffer pH 7.0, λexc 295 nm, Stern–Volmer, τ0 = 10^–8 s; for BSA fluorescence, % of the initial fluorescence intensity (I/Io): λem,max = 342 nm, final value of titration (Figure S11)
T1 construct: purchased
T1 sequence (P02769 25-607): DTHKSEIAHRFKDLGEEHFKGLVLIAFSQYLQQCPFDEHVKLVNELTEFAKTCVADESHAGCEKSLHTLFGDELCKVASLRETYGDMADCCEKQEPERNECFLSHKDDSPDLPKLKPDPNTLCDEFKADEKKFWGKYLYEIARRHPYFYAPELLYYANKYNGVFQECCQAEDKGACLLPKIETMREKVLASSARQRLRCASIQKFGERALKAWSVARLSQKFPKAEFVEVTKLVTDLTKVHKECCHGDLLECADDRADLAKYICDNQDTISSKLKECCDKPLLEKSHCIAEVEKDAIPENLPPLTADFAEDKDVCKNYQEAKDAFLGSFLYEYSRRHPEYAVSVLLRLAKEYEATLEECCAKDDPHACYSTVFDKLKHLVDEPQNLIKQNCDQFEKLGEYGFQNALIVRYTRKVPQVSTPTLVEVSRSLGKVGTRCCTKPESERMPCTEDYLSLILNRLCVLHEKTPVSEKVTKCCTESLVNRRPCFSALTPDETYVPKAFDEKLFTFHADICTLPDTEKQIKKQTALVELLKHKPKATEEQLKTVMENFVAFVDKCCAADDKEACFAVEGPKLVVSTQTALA
Procedure, shortened: (§2)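 Compound binding to serum albumin monitored by quenching of albumin tryptophan fluorescence emission. Quenching constants (kq) derived from Stern–Volmer equation; binding constants (K) from Scatchard equation.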

[5] = molecular target: T2, human serum albumin (HSA) (Homo sapiens, UniProt P02768); experiment: as above; conditions: for K(HSA), HSA-binding constant / kq(HSA), HSA-quenching constant: HSA 3 μM; for K(HSA), HSA-binding constant: buffer pH 7.0, Scatchard equation; for kq(HSA), HSA-quenching constant: buffer pH 7.0, λexc 295 nm, Stern–Volmer, τ0 = 10^–8 s; for HSA fluorescence, % of the initial fluorescence intensity (I/Io): λem,max = 351 nm, final value of titration (Figure S10)
T2 construct: purchased
T2 sequence (P02768 25-609): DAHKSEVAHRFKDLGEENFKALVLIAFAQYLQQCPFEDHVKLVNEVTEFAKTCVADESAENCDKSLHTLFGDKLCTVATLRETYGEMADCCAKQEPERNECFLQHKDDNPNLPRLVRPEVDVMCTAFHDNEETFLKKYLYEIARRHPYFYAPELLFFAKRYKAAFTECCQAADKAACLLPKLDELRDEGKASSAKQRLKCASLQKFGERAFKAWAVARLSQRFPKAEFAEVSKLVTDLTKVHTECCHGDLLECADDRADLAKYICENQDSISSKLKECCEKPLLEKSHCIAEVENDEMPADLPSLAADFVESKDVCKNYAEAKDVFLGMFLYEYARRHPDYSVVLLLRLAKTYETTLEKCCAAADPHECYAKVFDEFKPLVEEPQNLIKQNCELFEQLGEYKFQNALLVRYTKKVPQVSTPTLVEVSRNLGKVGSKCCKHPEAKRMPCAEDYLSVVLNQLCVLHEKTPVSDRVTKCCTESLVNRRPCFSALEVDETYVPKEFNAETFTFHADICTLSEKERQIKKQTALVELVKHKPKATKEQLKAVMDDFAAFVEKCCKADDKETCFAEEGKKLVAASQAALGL
Procedure, shortened: as §2

| SMILES | MIC [1] | MIC (values in parentheses) [1] | MIC [2] | MIC (values in parentheses) [2] | MIC [3] | MIC (values in parentheses) [3] | K(BSA), BSA-binding constant [4] | kq(BSA), BSA-quenching constant [4] | BSA fluorescence, % of the initial fluorescence intensity (I/Io) [4] | K(HSA), HSA-binding constant [5] | kq(HSA), HSA-quenching constant [5] | HSA fluorescence, % of the initial fluorescence intensity (I/Io) [5] |
| --- | --- | --- | --- | --- | --- | --- | --- | --- | --- | --- | --- | --- |
| CN1CCN(c2c(F)cc3c(=O)c(C(=O)[O-])cn(CCF)c3c2F)CC1.CN1CCN(c2c(F)cc3c(=O)c(C(=O)[O-])cn(CCF)c3c2F)CC1.[Ni+2].c1ccc(Nc2ccccn2)nc1 [complex 18, [Ni(flrx)2(bipyam)]] | 8 mg/L | 8.3 µM | 8 mg/L | 8.3 µM | 32 mg/L | 33.0 µM | 4.77(±0.15) × 10^4 M^−1 | 1.56(±0.07) × 10^13 M^−1s^−1 | 25.2% | 7.13(±0.17) × 10^4 M^−1 | 6.94(±0.10) × 10^12 M^−1s^−1 | 44.5% |
| CN1CCN(c2c(F)cc3c(=O)c(C(=O)[O-])cn(CCF)c3c2F)CC1.CN1CCN(c2c(F)cc3c(=O)c(C(=O)[O-])cn(CCF)c3c2F)CC1.[Mn+2].c1ccc(-c2ccccn2)nc1 [complex 9, [Mn(flrx)2(bipy)]] | 8 mg/L | 8.4 µM | 8 mg/L | 8.4 µM | 16 mg/L | 16.9 µM | 1.39(±0.05) × 10^5 M^−1 | 2.45(±0.09) × 10^13 M^−1s^−1 | 18.0% | 6.36(±0.31) × 10^4 M^−1 | 8.09(±0.17) × 10^12 M^−1s^−1 | 39.8% |
| CN1CCN(c2c(F)cc3c(=O)c(C(=O)[O-])cn(CCF)c3c2F)CC1.[Cl-].[Cu+2].c1ccc(Nc2ccccn2)nc1 [complex 7, [Cu(flrx)(bipyam)Cl]] | > 16 mg/L | > 25.0 µM | > 16 mg/L | > 25.0 µM | > 32 mg/L | > 50.0 µM | 1.26(±0.05)×10^5 M^−1 | 1.56(±0.04) × 10^13 M^−1s^−1 | 26.6% | 1.31(±0.05) × 10^5 M^−1 | 5.57(±0.18) × 10^12 M^−1s^−1 | 49.3% |
| CN1CCN(c2c(F)cc3c(=O)c(C(=O)[O-])cn(CCF)c3c2F)CC1.CN1CCN(c2c(F)cc3c(=O)c(C(=O)[O-])cn(CCF)c3c2F)CC1.O.O.[Mn+2] [complex 2, [Mn(flrx)2(H2O)2]] | 4 mg/L | 4.7 µM | 4 mg/L | 4.7 µM | 16 mg/L | 18.7 µM | 1.45(±0.04) × 10^5 M^−1 | 3.45(±0.16) × 10^13 M^−1s^−1 | 11.1% | 9.58(±0.39) × 10^4 M^−1 | 1.42(±0.04) × 10^13 M^−1s^−1 | 28.5% |
| CN1CCN(c2c(F)cc3c(=O)c(C(=O)[O-])cn(CCF)c3c2F)CC1.CN1CCN(c2c(F)cc3c(=O)c(C(=O)[O-])cn(CCF)c3c2F)CC1.[Co+2].c1ccc(Nc2ccccn2)nc1 [complex 16, [Co(flrx)2(bipyam)]] | 8 mg/L | 8.3 µM | 8 mg/L | 8.3 µM | 16 mg/L | 16.5 µM | 1.44(±0.04) × 10^5 M^−1 | 1.98(±0.05) × 10^13 M^−1s^−1 | 22.2% | 9.61(±0.36) × 10^4 M^−1 | 9.35(±0.22) × 10^12 M^−1s^−1 | 36.1% |
| CN1CCN(c2c(F)cc3c(=O)c(C(=O)[O-])cn(CCF)c3c2F)CC1.CN1CCN(c2c(F)cc3c(=O)c(C(=O)[O-])cn(CCF)c3c2F)CC1.CO.CO.[Co+2] [complex 4, [Co(flrx)2(MeOH)2]] | 8 mg/L | 9.3 µM | 4 mg/L | 4.6 µM | 16 mg/L | 18.6 µM | 1.02(±0.05) × 10^5 M^−1 | 1.34(±0.03) × 10^13 M^−1s^−1 | 26.3% | 7.68(±0.33) × 10^4 M^−1 | 6.05(±0.13) × 10^12 M^−1s^−1 | 44.3% |
| CN1CCN(c2c(F)cc3c(=O)c(C(=O)[O-])cn(CCF)c3c2F)CC1.CN1CCN(c2c(F)cc3c(=O)c(C(=O)[O-])cn(CCF)c3c2F)CC1.[Co+2].c1ccc(-c2ccccn2)nc1 [complex 15, [Co(flrx)2(bipy)]] | 8 mg/L | 8.4 µM | 4 mg/L | 4.2 µM | 16 mg/L | 16.8 µM | 2.84(±0.11) × 10^5 M^−1 | 5.12(±0.17) × 10^13 M^−1s^−1 | 9.2% | 8.13(±0.25)×10^4 M^−1 | 1.56(±0.05) × 10^13 M^−1s^−1 | 26.1% |
| CN1CCN(c2c(F)cc3c(=O)c(C(=O)[O-])cn(CCF)c3c2F)CC1.CN1CCN(c2c(F)cc3c(=O)c(C(=O)[O-])cn(CCF)c3c2F)CC1.[Mn+2].c1ccc(Nc2ccccn2)nc1 [complex 10, [Mn(flrx)2(bipyam)]] | 16 mg/L | 16.6 µM | 16 mg/L | 16.6 µM | > 32 mg/L | > 33.2 µM | 6.46(±0.39) × 10^4 M^−1 | 1.20(±0.04) × 10^13 M^−1s^−1 | 31.6% | 8.40(±0.58) × 10^4 M^−1 | 8.01(±0.23) × 10^12 M^−1s^−1 | 47.4% |
| CN1CCN(c2c(F)cc3c(=O)c(C(=O)[O-])cn(CCF)c3c2F)CC1.CN1CCN(c2c(F)cc3c(=O)c(C(=O)[O-])cn(CCF)c3c2F)CC1.[Mn+2].c1cnc2c(c1)ccc1cccnc12 [complex 11, [Mn(flrx)2(phen)]] | 8 mg/L | 8.2 µM | 8 mg/L | 8.2 µM | 16 mg/L | 16.4 µM | 1.09(±0.03) × 10^5 M^−1 | 1.65(±0.04) × 10^13 M^−1s^−1 | 25.2% | 1.01(±0.04) × 10^5 M^−1 | 1.03(±0.01) × 10^13 M^−1s^−1 | 34.2% |
| CN1CCN(c2c(F)cc3c(=O)c(C(=O)[O-])cn(CCF)c3c2F)CC1.CN1CCN(c2c(F)cc3c(=O)c(C(=O)[O-])cn(CCF)c3c2F)CC1.[Cu+2] [complex 1, [Cu(flrx)2]] | 8 mg/L | 10.0 µM | 8 mg/L | 10.0 µM | 8 mg/L | 10.0 µM | 7.19(±0.21) × 10^4 M^−1 | 1.87(±0.09) × 10^13 M^−1s^−1 | 17.3% | 8.39(±0.27) × 10^4 M^−1 | 1.09(±0.08) × 10^13 M^−1s^−1 | 33.3% |
